# Entries after “also recorded” stand apart in the source; their conditions may differ.
# B1: IL-6: murine recombinant Interleukin 6 (IL-6), 25 ng/ml (protein, UniProt P08505 25-211, looked up)
# Interleukin-6: FPTSQVRRGDFTEDTTPNRPVYTTSQVGGLITHVLWEIVEMRKELCNGNSDCMNNDDALAENNLKLPEIQRNDGCYQTGYNQEICLLKISSGLLEYHSYLEYMKNNLKDNKKDKARVLQRDTETLIHIFNQEVKDLHKIVLPTPISNALLTDKLESQKEWLRTKTIQFILKSLEEFLKVTLRSTRQT
# B2: GM-CSF: murine recombinant granulocyte macrophage-colony stimulating factor, 50 ng/ml (protein, UniProt P01587 18-141, looked up)
# Granulocyte-macrophage …: APTRSPITVTRPWKHVEAIKEALNLLDDMPVTLNEEVEVVSNEFSFKKLTCVQTRLKIFEQGLRGNFTKLKGALNMTASYYQTYCPPTPETDCETQVTTYADFIDSLKTFLTDIPFECKKPGQK
# Key:
# [1] = Tests of AII fragments for effectiveness (test not described); settings: test not specified
# dendritic cells = assay: Effect of angiotensin peptides on dendritic cell proliferation (cells per well by phase contrast microscopy); format: cell-based, C57B1/6 mice; settings: cytokine(s) added to the cultures alone
# Text: Isolation of Dendritic Cells from Mice Treated with flt3 Ligand: Spleens were enriched in vivo with dendritic cells by stimulation with flt3 ligand (Marakovsky et al, 1996). C57B1/6 mice were subcutaneously injected with 4×10^6 flt3 ligand-secreting B16 melanoma cells prepared by transfection of murine flt3 ligand cDNA with the retroviral vector MFG. Spleen cells were harvested after the tumors reached 2-3 cm in diameter, at which time the spleens were 5-10 fold enlarged over those of untreated mice.
# The spleens were harvested and the cells were dispersed through sterile screens. A single cell suspension of whole splenocytes was resuspended in a high-density BSA solution (1 ml/spleen) containing 10.6 g BSA, 18.6 ml PBS, 2.9 ml 1 N NaOH, and 6.5 ml water. After overlaying 2 ml of ice-cold RPMI, the splenocyte/BSA solution was centrifuged for 15 minutes at 9500 g. About 5×10^7 dendritic cells/spleen were recovered from the interface and resuspended in RPMI. […]
# Culture of Dendritic Cells: Twenty four hours after isolation, these cells were counted and placed in culture in RPMI 1640 supplemented with 10% fetal calf serum, 2 mM 1 glutamine, 1 mM sodium pyruvate, 50 μM mercaptoethanol, 100 U/ml penicillin and 100 μg/ml streptomycin at a concentration of 1×10^3 cells/well of a 96 well plate. One third of the wells were counted at random to ensure even distribution of the cells to the wells. […]
Molecule,effectiveness [1],"number of cells per well / cellular proliferation, cytokine without angiotensin peptide (dendritic cells)"
His-Pro-Phe (HPF) [AII(6-8)],not to be effective,–
Tyr-Ile-His-Pro-Phe (YIHPF) [AII(4-8)],not to be effective; also recorded: ineffective,–
B1,–,did not affect the number of cells per well
B2,–,did not increase cellular proliferation
